# According to paper PMC12586182 (Frontiers in Oncology, 2025):
# Legend:
# Assay in all cases: Cell viability assay (ATPlite)
# Type in all cases: cell-based
# SW684 = conditions: Homo sapiens; SW684 cell line, 72 hours incubation
# Procedure: (§1) Intracellular ATP content was used as an indirect readout of cell number using the ATPlite 1Step bioluminescence assay (Revvity, Groningen, the Netherlands). Cells were seeded in 384-well plates at an optimized density to ensure unrestricted growth and maximal signal at the end of the experiment. After 24 hours of incubation, the starting cell number was determined by adding ATPlite to each well of a control plate and recording luminescence on an Envision multimode reader (Revvity, Waltham, MA, USA) ([4]). Compounds were diluted in DMSO in √10-fold steps from 10 mmol/L stocks to obtain 9-point dilution series. After further 31.6-fold dilution in 20 mmol/L HEPES (pH 7.4), the dilution series were added in duplicate to the cells in the 384-well plates to determine the effect of the compounds on cell viability. Vehicle-treated controls were included to determine maximal cell proliferation. The final DMSO concentration was 0.4% (v/v) in all wells. After incubation for an additional 72 hours, the ATP content was measured in each well using ATPlite. The luminescent signal in inhibitor-treated wells was normalized to vehicle-treated control wells to determine the percentage viability at each concentration. Cell doublings were determined by relating the cell number of vehicle-treated controls to the starting cell number for each cell line. The viability assay of a cell line was repeated when the cell doubling deviated > 2-fold from the historic doubling as determined by multiple independent experiments. The quality of the complete assay was determined by a parallel test with doxorubicin on two cell lines. IC50 values were calculated by fitting a four-parameter logistic model to the percentage viability values using IDBS XLfit5 (IDBS, Guildford, United Kingdom). All curves were visually inspected and submitted to an F-test as implemented in IDBS XLfit5. Curves with an F-value above 1.5 were invalidated and IC50 values were maximized at the highest concentration.
# HuTu 80 = conditions: Homo sapiens, HuTu80; HuTu 80 cell line, 72 hours incubation
# Procedure: as §1
# Hs 766T = conditions: Homo sapiens, Hs766T; Hs 766T cell line, 72 hours incubation
# Procedure: as §1
# COLO 829 = conditions: Homo sapiens; COLO 829 cell line, 72 hours incubation
# Procedure: as §1
# CCF-STTG1 = conditions: Homo sapiens; CCF-STTG1 cell line, 72 hours incubation
# Procedure: as §1
# MKN45 = conditions: Homo sapiens, MKN-45; MKN45 cell line, 72 hours incubation
# Procedure: as §1
# J82 = conditions: Homo sapiens; J82 cell line, 72 hours incubation
# Procedure: as §1
# Hs 852.T = conditions: Homo sapiens; Hs 852.T cell line, 72 hours incubation
# Procedure: as §1
# SW780 = conditions: Homo sapiens; SW780 cell line, 72 hours incubation
# Procedure: as §1
# SW620 = conditions: Homo sapiens, SW-620; SW620 cell line, 72 hours incubation
# Procedure: as §1
# SK-BR-3 = conditions: Homo sapiens; SK-BR-3 cell line, 72 hours incubation
# Procedure: as §1
# SR = conditions: Homo sapiens; SR cell line, 72 hours incubation
# Procedure: as §1
# JM-1 = conditions: Homo sapiens, JM1; JM-1 cell line, 72 hours incubation
# Procedure: as §1
# HT-1080 = conditions: Homo sapiens; HT-1080 cell line, 72 hours incubation
# Procedure: as §1
# HCC1954 = conditions: Homo sapiens; HCC1954 cell line, 72 hours incubation
# Procedure: as §1
# Hs 578T = conditions: Homo sapiens; Hs 578T cell line, 72 hours incubation
# Procedure: as §1
# LS174T = conditions: Homo sapiens; LS174T cell line, 72 hours incubation
# Procedure: as §1
# SW872 = conditions: Homo sapiens; SW872 cell line, 72 hours incubation
# Procedure: as §1
# L-82 = conditions: Homo sapiens; L-82 cell line, 72 hours incubation
# Procedure: as §1
# U2OS = conditions: Homo sapiens; U2OS cell line, 72 hours incubation
# Procedure: as §1
# PC-3 = conditions: Homo sapiens; PC-3 cell line, 72 hours incubation
# Procedure: as §1
# LC-2/ad = conditions: Homo sapiens; LC-2/ad cell line, 72 hours incubation
# Procedure: as §1
# KMS-11 = conditions: Homo sapiens; KMS-11 cell line, 72 hours incubation
# Procedure: as §1
# NCI-H2172 = conditions: Homo sapiens; NCI-H2172 cell line, 72 hours incubation
# Procedure: as §1
# 769-P = conditions: Homo sapiens; 769-P cell line, 72 hours incubation
# Procedure: as §1
# MeWo = conditions: Homo sapiens; MeWo cell line, 72 hours incubation
# Procedure: as §1
# TOV-21G = conditions: Homo sapiens, TOV21G; TOV-21G cell line, 72 hours incubation
# Procedure: as §1
# RPMI-7951 = conditions: Homo sapiens; RPMI-7951 cell line, 72 hours incubation
# Procedure: as §1
# Kasumi-1 = conditions: Homo sapiens; Kasumi-1 cell line, 72 hours incubation
# Procedure: as §1
# MG-63 = conditions: Homo sapiens; MG-63 cell line, 72 hours incubation
# Procedure: as §1
# TT = conditions: Homo sapiens; TT cell line, 72 hours incubation
# Procedure: as §1
smiles,measurement,setting,value
O=C(c1ccc(Oc2ccccc2)cc1Cl)c1c[nH]c2ncnc(N[C@@H]3CC[C@@H](CO)OC3)c12 [nemtabrutinib],IC50,SW684,11.9 µM
same,IC50,HuTu 80,1.68 µM
same,IC50,Hs 766T,1.82 µM
same,IC50,COLO 829,1.54 µM
same,IC50,CCF-STTG1,16.7 µM
same,IC50,MKN45,5.26 µM
same,IC50,J82,7.93 µM
same,IC50,Hs 852.T,4.02 µM
same,IC50,SW780,2.79 µM
same,IC50,SW620,2.45 µM
same,IC50,SK-BR-3,1.85 µM
same,IC50,SR,9.15 µM
same,IC50,JM-1,23.8 µM
same,IC50,HT-1080,4.8 µM
same,IC50,HCC1954,1.32 µM
same,IC50,Hs 578T,11.4 µM
same,IC50,LS174T,1.74 µM
same,IC50,SW872,0.666 µM
same,IC50,L-82,14 µM
same,IC50,U2OS,2.67 µM
same,IC50,PC-3,26.8 µM
same,IC50,LC-2/ad,1.26 µM
same,IC50,KMS-11,4.65 µM
same,IC50,NCI-H2172,0.447 µM
same,IC50,769-P,4.01 µM
same,IC50,MeWo,10.2 µM
same,IC50,TOV-21G,3.78 µM
same,IC50,RPMI-7951,2.22 µM
same,IC50,Kasumi-1,1.41 µM
same,IC50,MG-63,5.82 µM
same,IC50,TT,5.33 µM
